Assay results taken from article PMC12783763 (Nature Communications, 2025).

Target: NPM1 (nucleophosmin 1) (Homo sapiens, UniProt P06748)
Assay: surface plasmon resonance
Assay type: binding

NPM1 (nucleophosmin 1), sequence (P06748 whole entry): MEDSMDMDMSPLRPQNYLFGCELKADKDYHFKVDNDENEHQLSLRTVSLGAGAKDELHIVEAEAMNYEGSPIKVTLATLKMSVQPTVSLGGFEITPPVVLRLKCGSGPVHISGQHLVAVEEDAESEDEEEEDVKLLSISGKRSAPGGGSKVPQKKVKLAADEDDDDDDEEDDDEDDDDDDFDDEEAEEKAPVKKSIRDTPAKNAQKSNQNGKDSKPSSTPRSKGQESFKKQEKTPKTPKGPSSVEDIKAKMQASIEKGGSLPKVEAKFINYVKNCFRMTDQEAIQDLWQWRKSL

For `C[C@H](CCC(=O)NCCS(=O)(=O)O)[C@H]1CC[C@H]2[C@@H]3[C@H](O)C[C@@H]4C[C@H](O)CC[C@]4(C)[C@H]3CC[C@]12C` [taurochenodeoxycholic acid], which Kd is on record?
The Kd was 20.9 µM.
